Patent US11135193B2, “Composition containing monoacetyldiacylglycerol compound as active ingredient for preventing or treating asthma” (Enzychem Lifesciences Corporation, priority 2013, dated 2021)
Where two headings read alike, the source gives them in different places. Marks after values point to notes of the source that are not given here.

Assays:
[1] = system: ovalbumin-induced asthma Balb/c mice; assay: Histopathological examination of lung tissue (H&E, PAS staining), ovalbumin-induced asthma model; type: in vivo, mouse
sepsis animal model = conditions: cecal-ligation-puncture sepsis model; cited from earlier work
[2] = system: interleukins (IL-4, IL-5 and IL-13); assay: Th2 cytokines in bronchoalveolar lavage fluid (ELISA), ovalbumin-induced asthma model; type: in vivo, mouse; conditions: BALF
Experimental: (§1) 6-week-old female SPF (specific pathogen-free) Balb/c mice (average weight: 20 g) were purchased from Samtako (Korea). The animals were sufficiently fed with solid feed (antibiotic-free, Samyang Feed Co.) and water until the start point of the experiment, and acclimated at a temperature of 22±2° C., a humidity of 55±15%, and a 12-hr light/12-hr dark cycle for 1 week, and then used in experiments. After 1 week of the acclimation period as described above, the mice were sensitized by intraperitoneal administration of a suspension of 2 mg of aluminum oxide (A8222, Sigma-Aldrich, MO, USA) and 20 μg of ovalbumin (A5503, Sigma-Aldrich) in 200 μl of phosphate buffered saline at two-week intervals. During a period from day 21 to day 23 after the first intraperitoneal administration of ovalbumin, 1% ovalbumin was inhaled into the mice for 30 minutes using an ultrasonic nebulizer (NE-U12, Omron Corp., Japan). At 24 hours after the last ovalbumin challenge, the airway hyperresponsiveness of the mice was measured, and after 48 hours, the mice were anesthetized by intraperitoneal administration of Pentobarbital (50 mg/kg, Entobal, Hanil, Korea). Then, blood was collected through the saphenous vein, and the mice were subjected to tracheostomy. Next, each of the mice was subjected to bronchoalveolar lavage with a total of 1.4 ml of PBS to collect an analytical sample. […] The drug and the sample were administered orally during a period from day 18 to day 23 after the first ovalbumin […] (FIG. 1). Seven mice were used per group.
The production of interleukins (IL-4, IL-5 and IL-13) in the bronchoalveolar lavage fluid isolated from each mouse was measured using a commercially available enzyme-linked immunosorbent assay (ELISA) kit (R&D System, USA). The analysis of each cytokine was performed according to the manufacturer's instruction, and the absorbance at 450 nm was measured using an ELISA reader (Molecular Devices, USA).

[3] = system: ovalbumin-induced asthma Balb/c mice; assay: Airway hyperresponsiveness (Pehn, plethysmography) in ovalbumin-induced asthma model; type: in vivo, mouse
Experimental: as §1
To measure airway hyperresponsiveness that is one of the major features of asthma, one chamber plethysmography (All Medicus, Korea) was used. The degree of airway resistance was evaluated by measuring enhanced pause (Pehn). For measurement of Pehn, the basis value was measured in a normal breathing state, and then PBS was inhaled for 3 minutes using an ultrasonic nebulizer, after which the Pehn value was measured for 3 minutes.

[4] = system: serum IgE and ovalbumin-specific IgE; assay: Serum IgE and ovalbumin-specific IgE (ELISA), ovalbumin-induced asthma model; type: in vivo, mouse
Experimental: as §1
The blood collected through the saphenous vein was incubated at room temperature for 30 minutes, and then centrifuged (3000 rpm, 15 min) to obtain serum. For measurement of serum IgE and ovalbumin-specific IgE, ELISA was used. IgE was measured using commercially available IgE (Biolegend Ins., USA). For measurement of ovalbumin-specific IgE, in a 96-well flat bottom ELISA plate, ovalbumin was dissolved in 0.1 M NaHCO3 buffer (pH 8.3) at a concentration of 20 μg/mL and incubated at 4° C. for 16 hours. Next, PBS containing 1% bovine serum albumin (BSA) was added to suppress nonspecific reactions. The serum sample was diluted at 1:400, allowed to react at room temperature for 2 hours, and then washed with PBS containing 0.05% Tween 20. Horseradish peroxidase (HRP)-conjugated goat […] polyclonal A was diluted 4000-fold and allowed to react at room temperature for 1 hour, and then color development was performed using 3,3′5,5′-tetramethylbenzidine substrate.

EL-4 cells = conditions: mouse, 24 h
Experimental: EL-4 cells that are mouse T lymphoma cells were suspended in 10% fetal bovine serum-containing RPMI medium (Gibco) at a concentration of 5×10^4 cells/ml, and 100 μl of the cell suspension was seeded into each well of a 96-well plate and cultured for 12 hours. Next, the cell culture was treated with monoacetyldiacylglycerol (MADG) compounds at the concentrations shown in Table 1 below, and was then additionally cultured for 24 hours. Next, according to the instruction provided in a CCK-8 kit (Dojindo) capable of counting cells, 10 μl of CCK-8 solution was added to the kit and allowed to react for 30 minutes to 4 hours, and then the absorbance (OD) at 570 nm was measured. In equation 1, the negative control group indicates a cell culture treated with 0.2% DMSO. […] Cell viability (%)=[(OD 570 nm value of MADC-treated group)/(OD 570 nm value of negative control group)]×100 Equation 1

[5] = system: ovalbumin-induced asthma Balb/c mice; assay: Inflammatory cell count in bronchoalveolar lavage fluid, ovalbumin-induced asthma model; type: in vivo, mouse; conditions: BALF
Experimental: as §1
An increase in the number of eosinophils is one of the major features of asthma. Thus, in order to measure the number of eosinophils, the following experiment was performed. The bronchoalveolar lavage fluid from each mouse was stained with trypan blue immediately after collection, and the number of total cells (excluding dead cells) was calculated using a hemocytometer.

Compound: CCCCC/C=C\C/C=C\CCCCCCCC(=O)OC(COC(C)=O)COC(=O)CCCCCCCCCCCCCCC (stereo not drawn) [EC-18, 1-palmitoyl-2-linoleoyl-3-acetylglycerol]
- infiltration of inflammatory cells around the bronchi and blood vessels ([1]; H&E staining): decrease
- mucus secretion from goblet cells of the bronchial epithelium ([1]; PAS staining): significantly decreased
- survivability ratio of animals (sepsis animal model): Increases
- secretion of IL-4 compared to asthma-induced group [2]: significantly decreased
- secretion of IL-5 compared to asthma-induced group [2]: significantly decreased
- secretion of IL-13 compared to asthma-induced group [2]: significantly decreased
- Th2 cytokines, IL-4 ([2]; 30 mg/kg oral): 17.89 ± 3.46 pg/mL
- Th2 cytokines, IL-5 ([2]; 30 mg/kg oral): 24.12 ± 3.07 pg/mL
- Th2 cytokines, IL-13 ([2]; 30 mg/kg oral): 97.27 ± 12.80 pg/mL
- Th2 cytokines, IL-4 ([2]; 60 mg/kg oral): 17.09 ± 3.08 pg/mL
- Th2 cytokines, IL-5 ([2]; 60 mg/kg oral): 25.02 ± 2.91 pg/mL
- Th2 cytokines, IL-13 ([2]; 60 mg/kg oral): 81.10 ± 20.46 pg/mL
- Pehn value ([3]; methacholine 0 mg/mL, 30 mg/kg oral): 0.465 ± 0.08
- Pehn value ([3]; methacholine 0 mg/mL, 60 mg/kg oral): 0.436 ± 0.08
- Pehn value ([3]; methacholine 12.5 mg/mL, 30 mg/kg oral): 1.179 ± 0.49
- Pehn value ([3]; methacholine 12.5 mg/mL, 60 mg/kg oral): 0.778 ± 0.15
- Pehn value ([3]; methacholine 25 mg/mL, 30 mg/kg oral): 2.914 ± 0.67
- Pehn value ([3]; methacholine 25 mg/mL, 60 mg/kg oral): 2.436 ± 0.68
- Pehn value ([3]; methacholine 50 mg/mL, 30 mg/kg oral): 4.098 ± 0.78
- Pehn value ([3]; methacholine 50 mg/mL, 60 mg/kg oral): 3.887 ± 0.59
- airway hyperresponsiveness / Pehn value compared to asthma-induced group ([3]; montelukast 30 mg/kg, EC-18 30 mg/kg and 60 mg/kg): significantly decreased
- ovalbumin-specific IgE compared to asthma-induced group [4]: significantly decreased
- serum IgE compared to asthma-induced group [4]: significantly decreased
- IgE ([4]; 30 mg/kg oral): 2.35 ± 0.38 µg/mL
- OVA specific IgE ([4]; 30 mg/kg oral): 295.36 ± 77.93 µg/mL
- IgE ([4]; 60 mg/kg oral): 2.27 ± 0.46 µg/mL
- OVA specific IgE ([4]; 60 mg/kg oral): 287.79 ± 69.53 µg/mL
- EL-4 cell viability (%, mean ± SD) (EL-4 cells; 5 μg/ml): 101.94 ± 1.47%
- EL-4 cell viability (%, mean ± SD) (EL-4 cells; 10 μg/ml): 97.54 ± 8.05%
- EL-4 cell viability (%, mean ± SD) (EL-4 cells; 20 μg/ml): 91.82 ± 3.48%
- EL-4 cell viability (%, mean ± SD) (EL-4 cells; 50 μg/ml): 92.67 ± 3.43%
- EL-4 cell viability (%, mean ± SD) (EL-4 cells; 100 μg/ml): 95.29 ± 2.89%
- EL-4 cell viability (%, mean ± SD) (EL-4 cells; 200 μg/ml): 99.74 ± 6.14%
- Inflammatory cell number, Eosinophils ([5]; 30 mg/kg oral): 93 ± 16.4* 10^5 per mouse
- Inflammatory cell number, Lymphocytes ([5]; 30 mg/kg oral): 16 ± 8.7 10^5 per mouse
- Inflammatory cell number, Macrophages ([5]; 30 mg/kg oral): 82 ± 25.5* 10^5 per mouse
- Inflammatory cell number, Neutrophils ([5]; 30 mg/kg oral): 15 ± 8.4 10^5 per mouse
- Inflammatory cell number, Total cells ([5]; 30 mg/kg oral): 221 ± 33.5* 10^5 per mouse
- Inflammatory cell number, Eosinophils ([5]; 60 mg/kg oral): 112 ± 18.7* 10^5 per mouse
- Inflammatory cell number, Lymphocytes ([5]; 60 mg/kg oral): 13 ± 8.7 10^5 per mouse
- Inflammatory cell number, Macrophages ([5]; 60 mg/kg oral): 113 ± 27.4 10^5 per mouse
- Inflammatory cell number, Neutrophils ([5]; 60 mg/kg oral): 12 ± 6.7 10^5 per mouse
- Inflammatory cell number, Total cells ([5]; 60 mg/kg oral): 253 ± 12.8* 10^5 per mouse
- number of eosinophils compared to asthma-induced group ([5]; groups administered with EC-18): decrease
- number of total inflammatory cells compared to asthma-induced group ([5]; groups administered with EC-18): significant decrease
